Test results: ChEMBL document CHEMBL4507278 (2021)

Experiments:
[1] = molecular target: Ephrin type-B receptor 1 (Homo sapiens) (UniProt P54762); conditions: Compound concentration 1000.0 nM
[2] = test system: Proto-oncogene tyrosine-protein kinase receptor Ret (Homo sapiens), P07949 [V804L]; conditions: Compound concentration 1000.0 nM
[3] = molecular target: Serine/threonine-protein kinase D2 (Homo sapiens) (UniProt Q9BZL6); conditions: Compound concentration 1000.0 nM
[4] = molecular target: Receptor-type tyrosine-protein kinase FLT3 (Homo sapiens) (UniProt P36888); conditions: Compound concentration 1000.0 nM
[5] = molecular target: Proto-oncogene tyrosine-protein kinase Src (Homo sapiens) (UniProt P12931); conditions: Compound concentration 1000.0 nM
[6] = molecular target: Serine/threonine-protein kinase tousled-like 1 (Homo sapiens) (UniProt Q9UKI8); conditions: Compound concentration 1000.0 nM
[7] = molecular target: D(1A) dopamine receptor (Homo sapiens) (UniProt P21728); assay: D1/HU Eurofins-Panlabs selectivity data (BI); conditions: Compound concentration 10.0 uM
[8] = molecular target: Serine/threonine-protein kinase MAK (Homo sapiens) (UniProt P20794); conditions: Compound concentration 1000.0 nM
[9] = molecular target: Mitogen-activated protein kinase kinase kinase 9 (Homo sapiens) (UniProt P80192); conditions: Compound concentration 1000.0 nM
[10] = molecular target: Serine/threonine-protein kinase MRCK beta (Homo sapiens) (UniProt Q9Y5S2); conditions: Compound concentration 1000.0 nM
[11] = test system: Phosphatidylinositol 4,5-bisphosphate 3-kinase catalytic subunit alpha isoform (Homo sapiens), P42336 [M1043I]; conditions: Compound concentration 1000.0 nM
[12] = molecular target: Serine/threonine-protein kinase WNK2 (Homo sapiens) (UniProt Q9Y3S1); conditions: Compound concentration 1000.0 nM
[13] = molecular target: Phosphorylase b kinase regulatory subunit alpha, liver isoform (Homo sapiens) (UniProt P46019); conditions: Compound concentration 1000.0 nM
[14] = test system: Receptor-type tyrosine-protein kinase FLT3 (Homo sapiens), P36888 [UNDEFINED MUTATION]; conditions: Compound concentration 1000.0 nM
[15] = molecular target: Serine/threonine-protein kinase D1 (Homo sapiens) (UniProt Q15139); conditions: Compound concentration 1000.0 nM
[16] = molecular target: Serine/threonine-protein kinase TAO3 (Homo sapiens) (UniProt Q9H2K8); conditions: Compound concentration 1000.0 nM
[17] = molecular target: High affinity nerve growth factor receptor (Homo sapiens) (UniProt P04629); conditions: Compound concentration 1000.0 nM
[18] = molecular target: Androgen receptor (Rattus norvegicus) (UniProt P15207); assay: TESTOST/RA Eurofins-Panlabs selectivity data (BI); conditions: Compound concentration 10.0 uM
[19] = molecular target: G protein-coupled receptor kinase 4 (Homo sapiens) (UniProt P32298); conditions: Compound concentration 1000.0 nM
[20] = molecular target: Serine/threonine-protein kinase PAK 3 (Homo sapiens) (UniProt O75914); conditions: Compound concentration 1000.0 nM
[21] = molecular target: Macrophage-stimulating protein receptor (Homo sapiens) (UniProt Q04912); conditions: Compound concentration 1000.0 nM
[22] = molecular target: Cyclin-dependent kinase 4 (Homo sapiens) (UniProt P11802); conditions: Compound concentration 1000.0 nM
[23] = test system: Phosphatidylinositol 4,5-bisphosphate 3-kinase catalytic subunit alpha isoform (Homo sapiens), P42336 [E545K]; conditions: Compound concentration 1000.0 nM
[24] = molecular target: Serine/threonine-protein kinase D3 (Homo sapiens) (UniProt O94806); conditions: Compound concentration 1000.0 nM
[25] = molecular target: 5'-AMP-activated protein kinase catalytic subunit alpha-2 (Homo sapiens) (UniProt P54646); conditions: Compound concentration 1000.0 nM
[26] = test system: Tyrosine-protein kinase ABL1 (Homo sapiens), P00519 [E255K]; conditions: Compound concentration 1000.0 nM
[27] = test system: Receptor-type tyrosine-protein kinase FLT3 (Homo sapiens), P36888 [N841I]; conditions: Compound concentration 1000.0 nM
[28] = molecular target: Mitogen-activated protein kinase kinase kinase 14 (Homo sapiens) (UniProt Q99558); conditions: Compound concentration 1000.0 nM
[29] = molecular target: Protein kinase C theta type (Homo sapiens) (UniProt Q04759); conditions: Compound concentration 1000.0 nM
[30] = molecular target: Mitogen-activated protein kinase kinase kinase kinase 3 (Homo sapiens) (UniProt Q8IVH8); conditions: Compound concentration 1000.0 nM
[31] = molecular target: Serine/threonine-protein kinase RIO2 (Homo sapiens) (UniProt Q9BVS4); conditions: Compound concentration 1000.0 nM
[32] = molecular target: Casein kinase I isoform alpha (Homo sapiens) (UniProt P48729); conditions: Compound concentration 1000.0 nM
[33] = test system: Epidermal growth factor receptor (Homo sapiens), P00533 [UNDEFINED MUTATION]; conditions: Compound concentration 1000.0 nM
[34] = molecular target: Mitogen-activated protein kinase 11 (Homo sapiens) (UniProt Q15759); conditions: Compound concentration 1000.0 nM
[35] = molecular target: AP2-associated protein kinase 1 (Homo sapiens) (UniProt Q2M2I8); conditions: Compound concentration 1000.0 nM
[36] = molecular target: Myosin light chain kinase, smooth muscle (Homo sapiens) (UniProt Q15746); conditions: Compound concentration 1000.0 nM
[37] = molecular target: Microtubule-associated serine/threonine-protein kinase 1 (Homo sapiens) (UniProt Q9Y2H9); conditions: Compound concentration 1000.0 nM
[38] = molecular target: Sodium-dependent dopamine transporter (Homo sapiens) (UniProt Q01959); conditions: Compound concentration 10.0 uM
[39] = molecular target: Dual specificity protein kinase CLK2 (Homo sapiens) (UniProt P49760); conditions: Compound concentration 1000.0 nM
[40] = molecular target: cAMP-dependent protein kinase catalytic subunit PRKX (Homo sapiens) (UniProt P51817); conditions: Compound concentration 1000.0 nM
[41] = molecular target: Tyrosine-protein kinase ITK/TSK (Homo sapiens) (UniProt Q08881); conditions: Compound concentration 1000.0 nM

Sequence of Serine/threonine-protein kinase MRCK beta (Homo sapiens) (Q9Y5S2 whole entry, canonical isoform): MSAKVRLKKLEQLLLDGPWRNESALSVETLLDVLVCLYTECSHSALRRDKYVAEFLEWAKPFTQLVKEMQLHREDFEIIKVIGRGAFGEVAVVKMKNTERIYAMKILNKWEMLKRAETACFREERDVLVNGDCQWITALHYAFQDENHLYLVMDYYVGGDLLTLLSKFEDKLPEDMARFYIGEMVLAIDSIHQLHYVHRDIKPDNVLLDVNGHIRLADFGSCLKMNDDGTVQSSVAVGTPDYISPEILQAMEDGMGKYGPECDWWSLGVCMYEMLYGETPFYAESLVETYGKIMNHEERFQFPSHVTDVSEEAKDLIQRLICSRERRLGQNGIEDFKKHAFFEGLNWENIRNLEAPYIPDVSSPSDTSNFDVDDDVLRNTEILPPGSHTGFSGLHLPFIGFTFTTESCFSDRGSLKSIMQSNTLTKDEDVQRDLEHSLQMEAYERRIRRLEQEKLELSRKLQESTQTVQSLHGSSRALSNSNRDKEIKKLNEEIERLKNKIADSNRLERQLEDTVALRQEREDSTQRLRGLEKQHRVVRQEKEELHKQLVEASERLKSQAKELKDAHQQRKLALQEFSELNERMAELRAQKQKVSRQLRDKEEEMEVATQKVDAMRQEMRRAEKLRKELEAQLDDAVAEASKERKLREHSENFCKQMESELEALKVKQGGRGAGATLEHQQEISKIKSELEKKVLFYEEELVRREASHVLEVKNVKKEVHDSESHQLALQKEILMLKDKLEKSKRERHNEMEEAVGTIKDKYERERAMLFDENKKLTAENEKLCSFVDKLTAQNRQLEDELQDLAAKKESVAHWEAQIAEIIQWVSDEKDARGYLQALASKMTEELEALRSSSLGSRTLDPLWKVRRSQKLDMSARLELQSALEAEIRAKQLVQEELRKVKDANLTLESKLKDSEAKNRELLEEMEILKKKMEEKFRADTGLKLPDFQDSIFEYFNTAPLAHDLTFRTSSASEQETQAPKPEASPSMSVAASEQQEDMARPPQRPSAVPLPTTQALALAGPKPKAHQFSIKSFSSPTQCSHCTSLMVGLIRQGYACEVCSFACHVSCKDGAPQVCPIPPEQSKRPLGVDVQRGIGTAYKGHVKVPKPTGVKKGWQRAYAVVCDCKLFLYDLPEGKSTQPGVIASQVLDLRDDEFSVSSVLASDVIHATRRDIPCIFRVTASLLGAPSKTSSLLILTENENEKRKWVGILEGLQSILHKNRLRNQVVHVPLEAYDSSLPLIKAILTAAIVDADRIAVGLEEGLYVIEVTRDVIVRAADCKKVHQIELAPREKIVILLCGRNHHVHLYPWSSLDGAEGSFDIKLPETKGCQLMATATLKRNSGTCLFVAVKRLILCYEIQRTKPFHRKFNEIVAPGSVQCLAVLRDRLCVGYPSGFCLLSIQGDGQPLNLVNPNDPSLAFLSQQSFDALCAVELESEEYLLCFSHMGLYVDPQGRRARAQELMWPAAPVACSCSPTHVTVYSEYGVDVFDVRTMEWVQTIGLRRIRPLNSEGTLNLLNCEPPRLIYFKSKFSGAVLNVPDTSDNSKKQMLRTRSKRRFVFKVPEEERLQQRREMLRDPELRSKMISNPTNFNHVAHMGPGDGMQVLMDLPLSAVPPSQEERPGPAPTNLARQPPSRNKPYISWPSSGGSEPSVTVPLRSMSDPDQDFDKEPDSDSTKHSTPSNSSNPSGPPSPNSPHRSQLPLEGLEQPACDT
Sequence of Mitogen-activated protein kinase kinase kinase 9 (Homo sapiens) (P80192 whole entry, looked up): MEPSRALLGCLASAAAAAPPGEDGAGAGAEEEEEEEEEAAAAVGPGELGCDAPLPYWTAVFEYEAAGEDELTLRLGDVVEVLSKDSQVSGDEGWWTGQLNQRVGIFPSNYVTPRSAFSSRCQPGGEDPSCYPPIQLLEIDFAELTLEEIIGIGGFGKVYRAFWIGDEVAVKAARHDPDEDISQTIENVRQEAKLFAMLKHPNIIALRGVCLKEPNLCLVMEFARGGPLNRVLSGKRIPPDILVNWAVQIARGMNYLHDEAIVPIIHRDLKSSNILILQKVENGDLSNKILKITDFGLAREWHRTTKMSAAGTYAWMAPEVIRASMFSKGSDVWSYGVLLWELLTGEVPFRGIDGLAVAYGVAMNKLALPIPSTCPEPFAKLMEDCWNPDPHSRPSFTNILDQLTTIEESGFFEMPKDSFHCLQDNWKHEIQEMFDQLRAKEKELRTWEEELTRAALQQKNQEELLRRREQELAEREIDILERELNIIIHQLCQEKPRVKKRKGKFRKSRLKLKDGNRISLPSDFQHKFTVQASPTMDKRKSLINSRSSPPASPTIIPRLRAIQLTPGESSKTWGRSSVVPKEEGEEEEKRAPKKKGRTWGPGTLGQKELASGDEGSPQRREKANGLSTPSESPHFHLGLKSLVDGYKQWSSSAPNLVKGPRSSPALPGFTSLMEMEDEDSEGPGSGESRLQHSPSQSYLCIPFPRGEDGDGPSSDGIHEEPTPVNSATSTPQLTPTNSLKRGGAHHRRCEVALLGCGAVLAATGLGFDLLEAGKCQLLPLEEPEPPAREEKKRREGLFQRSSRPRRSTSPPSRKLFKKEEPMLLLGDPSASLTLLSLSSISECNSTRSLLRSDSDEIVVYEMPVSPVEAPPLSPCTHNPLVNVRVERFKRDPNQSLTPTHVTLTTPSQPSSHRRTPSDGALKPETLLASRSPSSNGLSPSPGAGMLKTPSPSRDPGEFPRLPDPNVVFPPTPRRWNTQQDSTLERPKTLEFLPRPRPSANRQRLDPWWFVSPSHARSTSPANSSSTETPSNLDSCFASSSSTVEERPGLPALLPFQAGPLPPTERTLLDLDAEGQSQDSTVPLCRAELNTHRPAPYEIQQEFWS
Sequence of Mitogen-activated protein kinase kinase kinase 14 (Homo sapiens) (Q99558 whole entry, looked up): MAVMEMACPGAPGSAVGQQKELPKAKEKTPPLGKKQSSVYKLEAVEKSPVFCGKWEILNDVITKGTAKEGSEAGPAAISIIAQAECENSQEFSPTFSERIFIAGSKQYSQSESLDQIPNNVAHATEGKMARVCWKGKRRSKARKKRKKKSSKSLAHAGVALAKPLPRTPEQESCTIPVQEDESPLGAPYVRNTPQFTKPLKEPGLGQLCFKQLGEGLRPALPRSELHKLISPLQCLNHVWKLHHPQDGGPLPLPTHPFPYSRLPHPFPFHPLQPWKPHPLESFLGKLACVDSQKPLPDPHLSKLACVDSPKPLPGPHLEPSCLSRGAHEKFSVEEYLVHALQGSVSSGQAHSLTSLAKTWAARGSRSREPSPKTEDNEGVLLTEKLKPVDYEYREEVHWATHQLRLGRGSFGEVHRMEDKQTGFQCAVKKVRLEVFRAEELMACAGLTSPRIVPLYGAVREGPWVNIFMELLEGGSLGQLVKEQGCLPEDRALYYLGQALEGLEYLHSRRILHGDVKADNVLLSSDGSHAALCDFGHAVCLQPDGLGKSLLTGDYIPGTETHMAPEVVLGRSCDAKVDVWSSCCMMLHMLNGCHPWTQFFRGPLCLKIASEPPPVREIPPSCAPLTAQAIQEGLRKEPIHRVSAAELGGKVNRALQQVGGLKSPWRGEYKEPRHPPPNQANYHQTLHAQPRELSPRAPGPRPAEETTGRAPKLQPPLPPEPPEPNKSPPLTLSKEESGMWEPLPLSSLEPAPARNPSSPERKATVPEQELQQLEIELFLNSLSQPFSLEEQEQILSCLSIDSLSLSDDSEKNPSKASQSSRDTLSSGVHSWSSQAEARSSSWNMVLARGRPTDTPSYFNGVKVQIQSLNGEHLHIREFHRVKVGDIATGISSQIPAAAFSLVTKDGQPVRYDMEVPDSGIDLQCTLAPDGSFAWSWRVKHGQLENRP
Sequence of Cyclin-dependent kinase 4 (Homo sapiens) (P11802 whole entry, canonical isoform): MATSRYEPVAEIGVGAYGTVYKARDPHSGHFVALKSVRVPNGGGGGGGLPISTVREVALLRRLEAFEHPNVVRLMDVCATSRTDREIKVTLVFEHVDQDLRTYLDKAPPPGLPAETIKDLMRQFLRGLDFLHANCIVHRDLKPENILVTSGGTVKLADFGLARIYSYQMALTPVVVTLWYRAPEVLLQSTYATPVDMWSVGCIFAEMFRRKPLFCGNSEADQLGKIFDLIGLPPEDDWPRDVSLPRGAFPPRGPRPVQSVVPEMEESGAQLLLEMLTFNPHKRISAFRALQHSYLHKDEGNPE
Sequence of Serine/threonine-protein kinase D1 (Homo sapiens) (Q15139 whole entry): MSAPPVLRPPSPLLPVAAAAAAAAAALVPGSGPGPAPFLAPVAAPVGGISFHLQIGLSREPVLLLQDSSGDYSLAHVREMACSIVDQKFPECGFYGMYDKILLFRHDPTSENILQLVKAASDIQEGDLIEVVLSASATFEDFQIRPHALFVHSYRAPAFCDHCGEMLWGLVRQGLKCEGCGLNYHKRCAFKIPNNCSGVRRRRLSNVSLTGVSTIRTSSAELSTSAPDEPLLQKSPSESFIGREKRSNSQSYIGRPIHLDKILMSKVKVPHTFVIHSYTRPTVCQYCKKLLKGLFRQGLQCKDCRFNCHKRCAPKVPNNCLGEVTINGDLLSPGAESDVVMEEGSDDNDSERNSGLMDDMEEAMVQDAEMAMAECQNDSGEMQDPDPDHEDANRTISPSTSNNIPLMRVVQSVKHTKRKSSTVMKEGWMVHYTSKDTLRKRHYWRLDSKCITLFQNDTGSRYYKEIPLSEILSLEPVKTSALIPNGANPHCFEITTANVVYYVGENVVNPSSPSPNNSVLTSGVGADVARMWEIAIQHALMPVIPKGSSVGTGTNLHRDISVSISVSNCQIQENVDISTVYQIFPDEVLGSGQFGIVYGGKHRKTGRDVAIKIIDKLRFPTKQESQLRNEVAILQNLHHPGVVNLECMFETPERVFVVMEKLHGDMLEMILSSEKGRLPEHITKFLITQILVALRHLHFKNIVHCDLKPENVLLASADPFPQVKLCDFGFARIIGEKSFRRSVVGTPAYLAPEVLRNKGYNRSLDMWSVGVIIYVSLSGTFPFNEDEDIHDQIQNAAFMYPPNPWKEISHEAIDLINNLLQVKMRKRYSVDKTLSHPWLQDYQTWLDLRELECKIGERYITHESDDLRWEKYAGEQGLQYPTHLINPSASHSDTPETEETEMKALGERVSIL

CS(=O)(=O)c1cc(C2(NC(=O)c3cncc4c3cnn4-c3ccc(F)cc3)CC2)ccn1 [BI 639667]
inactive: residual activity [1] 91% | residual activity [2] 100% | residual activity [3] 97% | residual activity [4] 93% | residual activity [5] 100% | residual activity [6] 75% | residual activity [7] 100% | residual activity [8] 100% | residual activity [9] 100% | residual activity [10] 100% | residual activity [11] 93% | residual activity [12] 75% | residual activity [13] 100% | residual activity [14] 100% | residual activity [15] 100% | residual activity [16] 97% | residual activity [17] 96% | residual activity [18] 91% | residual activity [19] 100% | residual activity [20] 100% | residual activity [21] 83% | residual activity [22] 100% | residual activity [23] 74% | residual activity [24] 97% | residual activity [25] 100% | residual activity [26] 100% | residual activity [27] 100% | residual activity [28] 61% | residual activity [29] 99% | residual activity [30] 87% | residual activity [31] 94% | residual activity [32] 96% | residual activity [33] 66% | residual activity [34] 100% | residual activity [35] 94% | residual activity [36] 94% | residual activity [37] 100% | inhibition [38] 22.5% | residual activity [39] 100% | residual activity [40] 85% | residual activity [41] 89%

CS(=O)(=O)NCC[C@H](NC(=O)c1cncc2c1cnn2-c1ccc(F)cc1)c1ccnc(S(C)(=O)=O)c1 [BI 9307]
inactive: residual activity [1] 88% | residual activity [2] 100% | residual activity [3] 94% | residual activity [4] 100% | residual activity [5] 96% | residual activity [6] 100% | residual activity [8] 100% | residual activity [9] 97% | residual activity [10] 95% | residual activity [11] 95% | residual activity [12] 100% | residual activity [13] 100% | residual activity [14] 92% | residual activity [15] 92% | residual activity [16] 80% | residual activity [17] 97% | residual activity [19] 100% | residual activity [20] 100% | residual activity [21] 99% | residual activity [22] 100% | residual activity [23] 78% | residual activity [24] 92% | residual activity [25] 97% | residual activity [26] 93% | residual activity [27] 91% | residual activity [28] 100% | residual activity [29] 100% | residual activity [30] 90% | residual activity [31] 100% | residual activity [32] 100% | residual activity [33] 71% | residual activity [34] 100% | residual activity [35] 100% | residual activity [36] 100% | residual activity [37] 100% | inhibition [38] 25.3% | residual activity [39] 100% | residual activity [40] 100% | residual activity [41] 99%
